# Reference: US20250275938A1, “COMPOSITIONS AND METHODS FOR TREATMENT OF CANCER” (SCIROSBIO (FZC), priority 2022, published 2025)
# Key:
# [1] = tested on: U87MG human glioma cell line; assay: MTT cell viability assay, U87MG; format: cell-based; conditions: for IC50: Homo sapiens, U-87 MG, individual drug, mean ± SD, no unit in table, test concentrations given in μM, read-out: Inhibitory Concentration at 50% (IC50) U87MG Cells; for IC50 / cell viability / anti-proliferative effect (MTT), in words: 24 hours; for cell viability / anti-proliferative effect (MTT), in words: U87MG
# Experimental: Cell lines and culture conditions. A human glioma cell line, U87MG, a rat glioma cell line, C6, and normal HEK293T (Human Embryonic Kidney) cells were obtained from National Centre for Cell Science (NCCS), Pune, India. The cells were sub-cultured in Dulbecco's Modified Eagle's Medium (DMEM) supplemented with 10% FBS at 5% CO2 and 37° C. At 85% confluence, the cells were harvested using 0.25% trypsin and seeded in 25 cm^2 flasks, 96 well, and 6-well plates, according to the experiment being performed. The cells were allowed to attach 70% to the surface prior to treatment. A stock solution of all the drugs (10 mg/ml) was made in a vehicle and diluted to the required concentrations. Suspensions were aspirated 10 times before treatment. Cells treated with vehicle control were used as a control.
# Cell viability assay. U87MG and C6 cells (5×10^3 cells/ml) were seeded in 96-well plates and exposed to different individual-drug treated groups with varying concentrations (0, 10, 40, 80, 120, and 160 μM) for a period of 24 hours, whereas HEK293T cells (5×10^3 cells/ml) were seeded at the inhibitory concentration (IC) at 50% of drugs, either alone or in combination. The individual-treated groups include Group I: untreated control glioma cells; Group II: TMZ-treated glioma cells; Group III: MET-treated glioma cells; and Group IV: EGCG-treated glioma cells.
# After a 24 hour treatment period, the cells were allowed to react with MTT for 4 hours in dark at 37° C. At the end of the incubation period, the dark purple formazan crystals formed were solubilized with DMSO and the absorbance was measured spectrophotometrically at 595 nm (Molecular Devices Spectra-Max M5, USA). The experiments were repeated at least three times. To determine the cell viability, the percentage of viability was calculated as follows:
# % viability=[(Optical density {OD} of treated cells−OD of Blank)/(OD of control−OD of blank)]×100.
# Calculation of IC50 value. The IC50 of a drug was determined using y=m(x)+c equation (where: ‘y’ & ‘x’ are the respective coordinates of y & x-axis, ‘m’ is the slope and ‘c’ is the constant) derived from the trendlines of each scattered plots MMT assay. […] The IC50 and IC25 were also calculated for the dual combinations. The IC50 for the triple combination was calculated by keeping the IC25 of the dual-combination constant, and the third drug was used in varying concentrations (0, 10, 40, 80, 120, and 160 μM) (Table 1).
# Combination index of drugs. According to the Chou-Talalay method, The statistical Combination Index (CI) of the drugs was performed according to the Chou-Talay method (Ma et al, Stem Cell Reports, 2017 9(6):1948-1960) to determine whether various drug combinations were synergistic, additive, or antagonistic, as shown in Table 1. This was performed for Groups V-IX using the following formula:
# Combination index (CI) of Drugs 1 & 2=(IC50 of drug-1 in combination/IC50 of drug-1 individually)+(IC50 of drug-2 in combination/IC50 of drug-2 individually).
# U87MG human glioma cells = assay: AO/EtBr dual staining for apoptosis, U87MG; format: cell-based; conditions: respective IC50 concentrations
# Description: AO/EtBr are fluorescent nuclear stains, which distinguish between live and dead cells based on their membrane integrity. AO intercalates in the DNA of live cells imparting green shade to the nucleus as an indica-tor of viability. In the case of the dead cell, EtBr intercalates along with AO, resulting in an orange appearance, with an increased orange appearance corresponding to a concomitant increase in the number of dead cells and vice versa.
# After the treatment period, monolayer cells were stained with AO/EtBr stain (1 mg/ml) and were visualized immediately under a fluorescence microscope (Axiovert, Carl Zeiss) at 20× magnification.
# [2] = tested on: intracellular ROS in C6 cells; assay: ROS activity by DCF-DA, C6; format: cell-based, rat; conditions: IC50 concentrations, vs control
# Experimental: Determination of ROS activity by DCF-DA. U87MG and C6 cells were seeded at 5×10^3 cells/well in 96 well plates. […] After the treatment period, monolayer cells were stained with DCF-DA stain, and the absorbance was read at 530 nm spectrophotometrically (Molecular Devices Spectra-Max M5, USA). This method is commonly used in ROS investigations and is based on the application of H2DCFDA (acetylated form of DCF), which is consecutively deacetylated inside the cells by intracellular esterase.
# [3] = tested on: human pancreatic cancer (PANC1) cells; assay: MTT cell viability assay, PANC1; format: cell-based; conditions: 24 hours
# Experimental: Cell lines and culture conditions: A human pancreatic cancer cell line PANC1 and human colon cancer cell line HCT116 were obtained from National Centre for Cell Science (NCCS), Pune, India. The PANC1 cells were sub-cultured in Dulbecco's Modified Eagle's Medium (DMEM) supplemented with 10% FBS at 5% C02 and 37° C. The HCT116 cells were sub-cultured in McCoy's 5A media supplemented with 10% FBS at 5% CO2 and 37° C. […] The cells were allowed to attach 70% to the surface prior to treatment. […] Suspensions were aspirated 10 times before treatment. Cells treated with vehicle control were used as a control. Cell viability assay: PANC1 and HCT116 cells ([…] cells/ml) were seeded in 96-well plates and exposed to different individual-drug treated groups with varying concentrations (0, 20, 40, 60, 80, 100, 120, 140, 160, 180 and 200 μM) for a period of 24 hours. The individual-treated groups include Group I: 5 Fluorouracil (5FU)-treated PANC1 and HCT116 cells; Group II: MET-treated PANC1 and HCT116 cells; Group III: EGCG-treated PANC1 and HCT116 cells and Group IV: 5FU+[…] PANC1 and HCT116 cells.
# [4] = tested on: human breast cancer (MDA-MB-453) cells; assay: MTT cell viability assay, MDA-MB-453; format: cell-based; conditions: 24 hours
# Experimental: Cell lines and culture conditions: A human breast cancer cell line MDA-MB-453 and human bone cancer cell line SaoS2 were obtained from National Centre for Cell Science (NCCS), Pune, India. The MDA-MB-453 cells were sub-cultured in Dulbecco's Modified Eagle's Medium (DMEM) supplemented with 10% FBS at 5% CO2 and 37° C. The SaoS2 cells were sub-cultured in McCoy's 5A media supplemented with 10% FBS at 5% CO2 and 37° C. […] The cells were allowed to attach 70% to the surface prior to treatment. […] Suspensions were aspirated 10 times before treatment. Cells treated with vehicle control were used as a control. Cell viability assay: MDA-MB-453 and SaoS2 cells (5×10^3 cells/ml) were seeded in 96-well plates and exposed to different individual-drug treated groups with varying concentrations (0, 20, 40, 60, 80, 100, 120, 140, 160, 180 and 200 μM) for a period of 24 hours.
SMILES,IC50 [1],"cell viability / anti-proliferative effect (MTT), in words [1]","cell viability / anti-proliferative effect (MTT), in words ([1]; listed as ECGC)",apoptotic cell death (AO/EtBr) (U87MG human glioma cells),apoptotic cell death (AO/EtBr) (U87MG human glioma cells; listed as E),intracellular ROS levels (DCF-DA fluorescence intensity) [2],"cell viability (MTT), in words [3]","cell viability (MTT), in words [4]",IC25 U87MG ([1]; as used in the triple combination for CI),apoptotic cell death (AO/EtBr) (U87MG human glioma cells; hydrochloride),"apoptotic cell death (AO/EtBr) (U87MG human glioma cells; listed as M, hydrochloride)"
"O=C(O[C@@H]1Cc2c(O)cc(O)cc2O[C@@H]1c1cc(O)c(O)c(O)c1)c1cc(O)c(O)c(O)c1 [EGCG, [(2R,3R)-5,7-dihydroxy-2-(3,4,5-trihydroxyphenyl)-3,4-dihydro-2H-chromen-3-yl] 3,4,5-trihydroxybenzoate]",94 ± 1.39 µM,reduction in cell viability in a dose-dependent fashion,did not result in significant inhibitory effects,did not produce any significant apoptotic activity,no apoptosis,increased significantly,reduction in cell viability in a dose-dependent fashion,reduction in cell viability in a dose-dependent fashion,,,
"CN(C)C(=N)N=C(N)N.Cl [MET, 3-(diaminomethylidene)-1,1-dimethylguanidine; hydrochloride]",80 ± 1.19 µM,reduction in cell viability in a dose-dependent fashion,,,,did not show much effect on ROS levels,reduction in cell viability in a dose-dependent fashion,reduction in cell viability in a dose-dependent fashion,34.03 µM,did not produce any significant apoptotic activity,no apoptosis but loss of cell membrane integrity
